Laboratory results taken from ChEMBL document CHEMBL1201862, “PubChem BioAssay data set” (2004).
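Grown in 96-well plates, cells were treated for 48 hours with each compound at five concentrations. Insufficient inhibition: endpoint recorded as highest concentration tested. GI50 is the concentration that inhibits growth by half.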 Calls of active or inactive are those of the source. Rule as the data show it: active = GI50 up to about 1.1 µM and inactive = higher.

Experiments:
Assay in all cases: growth of human tumour cells (NCI), 48 h
SK-MEL-28 = test system: SK-MEL-28
SF-268 = test system: SF-268
UO-31 = test system: UO-31
CCRF-CEM = test system: CCRF-CEM
U-251 = test system: U-251
OVCAR-8 = test system: OVCAR-8
NCI-H226 = test system: NCI-H226
786-0 = test system: 786-0
IGROV-1 = test system: IGROV-1
EKVX = test system: EKVX
DU-145 = test system: DU-145
HL-60 = test system: HL-60
MDA-MB-231 = test system: MDA-MB-231
SR = test system: SR
SNB-75 = test system: SNB-75
SF-539 = test system: SF-539
MDA-N = test system: MDA-N
HCC 2998 = test system: HCC 2998
SN12C = test system: SN12C

Measured: GI50

Sc1ccc2ccccc2c1CNCc1ccccc1
inactive: SK-MEL-28 21.5 µM | SF-268 8.47 µM | UO-31 11.7 µM | CCRF-CEM 3.72 µM | U-251 12.8 µM | OVCAR-8 20.5 µM | NCI-H226 3.08 µM | 786-0 9.75 µM | IGROV-1 2.65 µM | EKVX 22.9 µM | DU-145 18.4 µM | HL-60 5.77 µM | MDA-MB-231 18.5 µM | SR 3.44 µM | SNB-75 15.7 µM | SF-539 10 µM | MDA-N 13.2 µM | HCC 2998 > 100 µM | SN12C 6.24 µM

C=CCC1(O)c2cccc(O)c2C(=O)c2c(O)cccc21
inactive: SK-MEL-28 31.7 µM | SF-268 32.7 µM | UO-31 27.8 µM | U-251 23.6 µM | OVCAR-8 32.2 µM | NCI-H226 45.7 µM | 786-0 35.8 µM | IGROV-1 45.9 µM | EKVX 27.5 µM | DU-145 29.9 µM | HL-60 20.5 µM | MDA-MB-231 33.5 µM | SR 10.9 µM | SNB-75 21.1 µM | SF-539 57.8 µM | MDA-N 9.93 µM | HCC 2998 17.5 µM

O=c1c2ccccc2sc2cccc(NCCCN3CCN(CCCNc4cccc5sc6ccccc6c(=O)c45)CC3)c12
inactive: SK-MEL-28 > 100 µM | SF-268 > 100 µM | UO-31 > 100 µM | CCRF-CEM > 100 µM | U-251 > 100 µM | NCI-H226 > 100 µM | 786-0 > 100 µM | IGROV-1 > 100 µM | EKVX > 100 µM | DU-145 > 100 µM | HL-60 > 100 µM | MDA-MB-231 > 100 µM | SR > 100 µM | SNB-75 19.5 µM | SF-539 > 100 µM | MDA-N > 100 µM | HCC 2998 > 100 µM | SN12C > 100 µM

Cc1cc(=O)n2nc(SCc3ccccc3)sc2n1
inactive: SK-MEL-28 > 100 µM | SF-268 > 100 µM | UO-31 24.3 µM | CCRF-CEM > 100 µM | U-251 > 100 µM | OVCAR-8 > 100 µM | NCI-H226 > 100 µM | 786-0 > 100 µM | IGROV-1 > 100 µM | DU-145 > 100 µM | HL-60 > 100 µM | MDA-MB-231 > 100 µM | SR > 100 µM | SNB-75 > 100 µM | SF-539 > 100 µM | MDA-N > 100 µM | HCC 2998 > 100 µM | SN12C > 100 µM

O=C1C(C(O)(C(F)(F)Cl)C(F)(F)Cl)CCC1C(O)(C(F)(F)Cl)C(F)(F)Cl (configuration not stated)
inactive: SK-MEL-28 3.42 µM | SF-268 3.57 µM | U-251 4.4 µM | OVCAR-8 3.94 µM | NCI-H226 3.6 µM | 786-0 > 10 µM | IGROV-1 4.98 µM | EKVX 4.1 µM | DU-145 3.81 µM | HL-60 > 10 µM | MDA-MB-231 3.34 µM | SR > 10 µM | SNB-75 3.7 µM | SF-539 2.74 µM | MDA-N > 10 µM | HCC 2998 3.42 µM | SN12C 6.87 µM

OC1CC2CCCN(CCc3c1[nH]c1ccccc31)C2 (configuration not stated)
inactive: SK-MEL-28 > 100 µM | SF-268 > 100 µM | UO-31 > 100 µM | CCRF-CEM > 100 µM | U-251 > 100 µM | OVCAR-8 > 100 µM | NCI-H226 > 100 µM | 786-0 > 100 µM | DU-145 > 100 µM | HL-60 > 100 µM | MDA-MB-231 89.3 µM | SR 97.1 µM | SNB-75 > 100 µM | SF-539 > 100 µM | MDA-N > 100 µM | HCC 2998 > 100 µM | SN12C > 100 µM

O=C(Nc1ccc2ncccc2c1)c1cc2c(cc1Cl)Sc1nccn1S2(=O)=O
inactive: SK-MEL-28 18.4 µM | SF-268 18.1 µM | UO-31 18.2 µM | U-251 13.6 µM | OVCAR-8 16.5 µM | NCI-H226 18.1 µM | 786-0 13.6 µM | IGROV-1 12.6 µM | EKVX 19.1 µM | DU-145 14.3 µM | HL-60 9.27 µM | MDA-MB-231 20.4 µM | SR 4.36 µM | SNB-75 15.3 µM | SF-539 20 µM | MDA-N 5.56 µM | HCC 2998 14.7 µM | SN12C 17.5 µM

COc1cc(/C=[N+](\[O-])c2ccccc2Cl)ccc1OC(=S)S
inactive: SK-MEL-28 35 µM | SF-268 42.7 µM | UO-31 39.6 µM | U-251 38.5 µM | OVCAR-8 32.7 µM | NCI-H226 57.4 µM | 786-0 50.4 µM | IGROV-1 49.4 µM | EKVX 29.2 µM | DU-145 72.1 µM | HL-60 20.1 µM | MDA-MB-231 53.3 µM | SR 26.1 µM | SNB-75 18 µM | SF-539 68.7 µM | MDA-N 29 µM | HCC 2998 37 µM | SN12C 45.7 µM
